pKd: −log10 of the molar value.
Target: METTL21A (Methyltransferase 21A) (Homo sapiens, UniProt Q8WXB1)
Experiment: SPR
Assay type: binding

METTL21A (Methyltransferase 21A), sequence (Q8WXB1 whole entry): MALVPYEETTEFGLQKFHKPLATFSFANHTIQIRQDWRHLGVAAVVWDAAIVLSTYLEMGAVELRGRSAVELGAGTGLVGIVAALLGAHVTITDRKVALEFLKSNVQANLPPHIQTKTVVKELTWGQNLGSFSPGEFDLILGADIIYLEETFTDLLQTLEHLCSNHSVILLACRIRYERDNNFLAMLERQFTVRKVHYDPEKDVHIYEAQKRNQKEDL

O=c1c(-c2ccc(O[C@@H]3O[C@H](CO)[C@@H](O)[C@H](O)[C@H]3O)cc2)coc2cc(O)cc(O)c12 [Sop, sophoricoside]
pKd: 3.91
